Test results taken from patent US8772268B2, “Bisphosphonamidate prodrugs and uses thereof” (The Johns Hopkins University, priority 2010, dated 2014).
Several values for one entry are separate records, joined by “and”; a condition that tells them apart may be missing. Equal values may be shown once. Read-outs that look alike come from different tables or passages of the source.

How the values were obtained:
NCI-H226 = assay: NCI-60 DTP Human Tumor Cell Line Screen; assay type: cell-based; details: NCI-H226, Non-Small Cell Lung Cancer, 48 h
CCRF-CEM = assay: NCI-60 DTP Human Tumor Cell Line Screen; assay type: cell-based; details: Leukemia, 48 h
MDA-MB-231/ATCC = assay: NCI-60 DTP Human Tumor Cell Line Screen; assay type: cell-based; details: Breast Cancer, 48 h
OVCAR-8 = assay: NCI-60 DTP Human Tumor Cell Line Screen; assay type: cell-based; details: OVCAR-8, Ovarian Cancer, 48 h
OPVCAR-5 = assay: NCI-60 DTP Human Tumor Cell Line Screen; assay type: cell-based; details: OPVCAR-5, Ovarian Cancer, 48 h
KM12 = assay: NCI-60 DTP Human Tumor Cell Line Screen; assay type: cell-based; details: KM12, Colon Cancer, 48 h
[1] = In vivo tolerance study, intraperitoneal dosing; set-up: species or system Balb/C mice; details: listed as clodronate prodrug
Description: Thirteen Balb/C mice were split into four groups; untreated, vehicle, dose 1 and dose 2. Untreated mice received no treatment or injection. The vehicle was 100 μL of corn oil. Mice receiving dose 1 received 100 μL of 30 mM clodronate prodrug dissolved in corn oil (2.17 mg/dose), which is about 110 mg/kg dose. Mice receiving dose 2 received 100 μL of 50 mM clodronate prodrug dissolved in corn oil (3.61 mg/dose), which is about a 200 mg/kg dose. Mice were dosed on Monday of each week for two weeks. The weights were measured for 4 consecutive days following dosing.

SN12C = assay: NCI-60 DTP Human Tumor Cell Line Screen; assay type: cell-based; details: Renal Cancer, 48 h
P. falciparum (NF54) = assay: Antimalarial [3H]-hypoxanthine incorporation assay; assay type: cell-based, Plasmodium falciparum; details: P. falciparum (NF54); read-out: IC50
Description: Plasmodium falciparum culture. NF54 P. falciparum parasites were maintained in O+ positive erythrocytes (obtained weekly from a rotating pool of screened healthy donors) in complete medium containing RPMI (Sigma), 25 mM N-2-hydroxyethylpiperazine-N′-2-ethanesulfonic acid (HEPES; Sigma), 27 mM sodium bicarbonate (Sigma) and 10% heat-inactivated male O+ serum in non-vented flasks. Hematocrit was maintained at 2.4%. Flasks were gassed with a mixture of 3% oxygen, 4% carbon dioxide, 93% nitrogen. Parasitemia was maintained at 0.1-5% by changing medium and erythrocytes two to three times a week.
Antimalarial activity was measured using a [^3H]-hypoxanthine incorporation assay as described previously (Desjardins et al., Antimicrob. Agents Chemother., vol. 16, p. 710, 1979; Milhous et al., Antimicrob. Agents Chemother., vol. 27, np. 525, 1985). […] For surveys, each concentration was assayed in triplicate while in expansions, each concentration was assayed in quadruplicate. To each well, 0.64 μCi of [^3H]-hypoxanthine (10-30 Ci/mmol; Perkin Elmer) was added and the plate was incubated for an additional 20 to 24 h. Samples from each well were harvested on filter paper and tritium counts were measured on the Beckmann Coulter LS6500 scintillation counter. […] Values considered as outliers according to Chauvenet's criterion were discarded and dropped from analysis. One survey and at least one expansion was performed for each compound.

PC-3 = assay: NCI-60 DTP Human Tumor Cell Line Screen; assay type: cell-based; details: PC-3, Prostate Cancer, 48 h
A549 NSCLC cells = assay: MTS cell proliferation assay, A549; assay type: cell-based; details: for IC50: A549, MTS, read-out: IC50 (decreased cell proliferation by 50% compared to control)
Description: Cell proliferation was determined using the CellTiter 96 Aqueous One Solution Cell Proliferation Assay MTS assay. A549 NSCLC cells were plated at 1.5×10^3 cells per well in flat bottom 96 well plates in 99 μL of media and allowed to adhere overnight. The drugs were serially diluted in 100% DMSO. For each drug treatment group, 1 μL of a 100× stock solution was added to each well for a final DMSO concentration of 1%. Cells were treated for 24, 48 or 72 hours. Cells were incubated with MTS dye (20 μL well^−1) for 40 min to 2 h. Absorbance at 490 nm was determined using a SpectraMax M2 (Molecular Devices) plate reader. The percent cell proliferation was calculated by converting the experimental absorbance to percentage of control, which was then plotted vs. drug concentration. The IC50 values were determined using a non-linear dose-response analysis in GraphPad Prism version 4.0. The IC50 is defined as the concentration of drug needed to cause a 50% decrease in proliferation compared to vehicle control. […]

T-47D = assay: NCI-60 DTP Human Tumor Cell Line Screen; assay type: cell-based; details: Breast Cancer, 48 h

CN(CCCCCl)P(=O)(OCc1ccc([N+](=O)[O-])cc1)C(Cl)(Cl)P(=O)(OCc1ccc([N+](=O)[O-])cc1)N(C)CCCCCl (stereo not drawn) [compound 14]
Log10GI50 (NCI-H226): −5.52 | Log10LC50 (NCI-H226): >−4.00 | Log10TGI (NCI-H226): >−4.00 | Log10GI50 (CCRF-CEM): −5.50 | Log10LC50 (CCRF-CEM): >−4.00 | Log10TGI (CCRF-CEM): >−4.00 | Log10GI50 (MDA-MB-231/ATCC): −5.51 | Log10LC50 (MDA-MB-231/ATCC): >−4.00 | Log10TGI (MDA-MB-231/ATCC): >−4.00 | Log10GI50 (OVCAR-8): −5.38 | Log10LC50 (OVCAR-8): >−4.00 | Log10TGI (OVCAR-8): >−4.00 | Log10GI50 (OPVCAR-5): −5.45 | Log10LC50 (OPVCAR-5): >−4.00 | Log10TGI (OPVCAR-5): >−4.00 | Log10GI50 (KM12): −5.46 | Log10LC50 (KM12): >−4.00 | Log10TGI (KM12): >−4.00 | Wt ([1]; Dose 1 (about 110 mg/kg i.p.), week 1, Apr. 11, 2011, individual mice): 19.2 g and 18.3 g and 19.4 g | Wt ([1]; Dose 1, 2nd week of treatment, Apr. 18, 2011): 19.3 g and 18.8 g and 18.4 g | Wt ([1]; Dose 1, 2nd week, Apr. 19, 2011): 19.3 g and 18.9 g and 18.3 g | Wt ([1]; Dose 1, 2nd week, Apr. 20, 2011): 19.4 g and 18.9 g and 18.4 g | Wt ([1]; Dose 1, 2nd week, Apr. 21, 2011): 19.1 g and 18.9 g and 18.6 g | Wt ([1]; Dose 1, 2nd week, Apr. 22, 2011): 19.3 g and 19.2 g and 18.3 g | Wt ([1]; Dose 1, week 1, Apr. 12, 2011): 19.3 g and 18.1 g and 18.4 g | Wt ([1]; Dose 1, week 1, Apr. 13, 2011): 19.8 g and 18.8 g and 18.7 g | Wt ([1]; Dose 1, week 1, Apr. 14, 2011): 19.8 g and 18.7 g and 19.1 g | Wt ([1]; Dose 1, week 1, Apr. 15, 2011): 19.5 g and 19.01 g and 18.8 g | Wt ([1]; Dose 2 (about 200 mg/kg i.p.), week 1, Apr. 11, 2011, individual mice): 18.7 g and 18.2 g and 19.1 g | Wt ([1]; Dose 2, 2nd week of treatment, Apr. 18, 2011): 19.3 g and 19.1 g and 19.5 g | Wt ([1]; Dose 2, 2nd week, Apr. 19, 2011): 19.1 g and 19.3 g and 19.5 g | Wt ([1]; Dose 2, 2nd week, Apr. 20, 2011): 18.8 g and 19 g | Wt ([1]; Dose 2, 2nd week, Apr. 21, 2011): 19 g and 19.4 g | Wt ([1]; Dose 2, 2nd week, Apr. 22, 2011): 18.9 g and 19.5 g and 20 g | Wt ([1]; Dose 2, week 1, Apr. 12, 2011): 17.8 g and 17.7 g and 18.2 g | Wt ([1]; Dose 2, week 1, Apr. 13, 2011): 19.07 g and 18.8 g | Wt ([1]; Dose 2, week 1, Apr. 14, 2011): 19.03 g and 18.8 g and 19.1 g | Wt ([1]; Dose 2, week 1, Apr. 15, 2011): 18.7 g and 18.2 g and 19.6 g | Log10GI50 (SN12C): −5.42 | Log10LC50 (SN12C): >−4.00 | Log10TGI (SN12C): >−4.00 | IC50 (P. falciparum (NF54)): 0.98 ± 0.21 µM | Log10GI50 (PC-3): −5.44 | Log10LC50 (PC-3): >−4.00 | Log10TGI (PC-3): >−4.00 | growth inhibitory effect on A549 cells (A549 NSCLC cells; 48 and 72 h): complete growth inhibition | growth inhibitory effect on A549 cells (A549 NSCLC cells; 24 h): partial growth inhibitory effect | EC50 (A549 NSCLC cells; A549 (NSCLC), MTS, table of Example 3): 8 µM | IC50 (A549 NSCLC cells; 24 h): 7.6 ± 3 µM | IC50 (A549 NSCLC cells; 48 h): 5.2 ± 1 µM | IC50 (A549 NSCLC cells; 72 h): 4.4 ± 2 µM | Log10GI50 (T-47D): −5.27 | Log10LC50 (T-47D): >−4.00 | Log10TGI (T-47D): >−4.00
